Assay results reported in US20250082659A1, “MANNO-OLIGOSACCHARIDE COMPOSITIONS FOR PATHOGEN CONTROL” (priority 2022, published 2025).

System: Streptococcus mutans
Assay: Inhibition of Streptococcus mutans by penicillin with or without MOS (Example 12)
Details: BHI media

penicillin
inhibition of S. mutans growth: 10%
